Among the data in patent US11492335B2, “Aryl or heteroaryl triazolone derivatives or salts thereof, or pharmaceutical compositions comprising the same” (YUHAN CORPORATION, priority 2018, dated 2022) are IC50 values, retold here.

Structures can show the parent of a compound that is named as a salt. Where two headings read alike, the source gives them in different places.

What all share (type): biochemical
One assay concerns the target T1, recombinant human VAP-1 (Homo sapiens, UniProt Q16853).
T1 construct: purchased R&D systems
T1 sequence (Q16853 1-763): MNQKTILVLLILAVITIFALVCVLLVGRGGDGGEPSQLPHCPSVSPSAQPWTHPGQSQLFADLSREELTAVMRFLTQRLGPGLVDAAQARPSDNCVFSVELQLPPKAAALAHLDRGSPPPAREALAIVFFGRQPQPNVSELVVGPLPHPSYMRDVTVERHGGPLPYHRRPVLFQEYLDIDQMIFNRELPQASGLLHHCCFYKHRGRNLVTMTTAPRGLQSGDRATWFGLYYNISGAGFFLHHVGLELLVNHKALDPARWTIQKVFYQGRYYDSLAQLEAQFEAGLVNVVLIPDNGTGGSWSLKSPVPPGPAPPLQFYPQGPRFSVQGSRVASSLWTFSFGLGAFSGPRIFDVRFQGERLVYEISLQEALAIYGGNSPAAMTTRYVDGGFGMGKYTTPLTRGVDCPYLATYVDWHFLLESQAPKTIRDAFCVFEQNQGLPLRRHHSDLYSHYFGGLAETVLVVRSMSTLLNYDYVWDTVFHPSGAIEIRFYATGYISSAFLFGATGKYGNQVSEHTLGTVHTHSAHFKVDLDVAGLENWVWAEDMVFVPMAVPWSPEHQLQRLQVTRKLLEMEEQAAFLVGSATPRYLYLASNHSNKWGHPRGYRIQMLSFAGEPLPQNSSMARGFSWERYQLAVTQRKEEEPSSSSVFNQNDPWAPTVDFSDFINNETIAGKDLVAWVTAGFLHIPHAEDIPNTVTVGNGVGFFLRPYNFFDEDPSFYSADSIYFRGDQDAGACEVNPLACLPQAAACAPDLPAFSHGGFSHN
Put plainly: Activity on recombinant human VAP-1, Amplex Red HRP-coupled hydrogen peroxide assay, benzylamine substrate. The settings on record: recombinant human VAP-1, benzylamine substrate, read-out: Inhibitory Activity (IC50, nM) human VAP-1. Put shortly: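 Compounds were preincubated with purified enzyme in 50 mM sodium phosphate pH 7.4 at 37 °C for 30 min, then 200 uM Amplex Red, 1 mM benzylamine and 1 U/mL HRP were added. Resorufin fluorescence (ex 544/em 590 nm) was followed over 1-2 h; IC50 came from 4-parameter fits of signal-rate inhibition.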

Assay [1] concerns the target T2, recombinant human MAO-A (monoamine oxidase-A) (Homo sapiens, UniProt P21397).
T2 construct: purchased Sigma-Aldrich
T2 sequence (P21397 1-527): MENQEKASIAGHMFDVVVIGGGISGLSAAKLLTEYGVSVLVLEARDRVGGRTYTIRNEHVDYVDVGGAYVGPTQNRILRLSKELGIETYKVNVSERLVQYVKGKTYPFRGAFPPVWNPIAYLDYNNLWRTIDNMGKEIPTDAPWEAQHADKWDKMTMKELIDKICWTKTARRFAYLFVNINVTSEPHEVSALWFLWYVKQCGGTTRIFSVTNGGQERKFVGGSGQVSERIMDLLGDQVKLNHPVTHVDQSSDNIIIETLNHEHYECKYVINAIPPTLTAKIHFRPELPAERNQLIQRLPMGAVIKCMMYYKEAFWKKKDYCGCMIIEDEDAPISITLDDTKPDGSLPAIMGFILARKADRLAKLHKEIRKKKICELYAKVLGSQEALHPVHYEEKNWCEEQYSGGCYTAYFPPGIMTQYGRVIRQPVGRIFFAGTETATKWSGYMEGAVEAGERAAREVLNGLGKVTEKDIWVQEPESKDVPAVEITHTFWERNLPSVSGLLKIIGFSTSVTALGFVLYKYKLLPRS
The assay is described as follows: Activity on recombinant human MAO-A, Amplex Red method, 0.5 mM tyramine substrate. The settings on record: read-out: Inhibitory Activity (IC50, nM) MAO-A. The procedure, abridged:
(§1)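 8-point, 1:3 dose-response, four-parameter logistic IC50 from reduction in fluorescence rate versus DMSO control. HRP/Amplex Red detection of H2O2 (ex 544, em 590 nm) after 30 min, 37 °C compound–enzyme preincubation in pH 7.4 phosphate buffer. MAO-A substrate: 0.5 mM tyramine; MAO-B: 1 mM benzylamine.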

The target in assay [2] is T3, recombinant human MAO-B (monoamine oxidase-B) (Homo sapiens, UniProt P27338).
T3 construct: purchased Sigma-Aldrich
T3 sequence (P27338 1-520): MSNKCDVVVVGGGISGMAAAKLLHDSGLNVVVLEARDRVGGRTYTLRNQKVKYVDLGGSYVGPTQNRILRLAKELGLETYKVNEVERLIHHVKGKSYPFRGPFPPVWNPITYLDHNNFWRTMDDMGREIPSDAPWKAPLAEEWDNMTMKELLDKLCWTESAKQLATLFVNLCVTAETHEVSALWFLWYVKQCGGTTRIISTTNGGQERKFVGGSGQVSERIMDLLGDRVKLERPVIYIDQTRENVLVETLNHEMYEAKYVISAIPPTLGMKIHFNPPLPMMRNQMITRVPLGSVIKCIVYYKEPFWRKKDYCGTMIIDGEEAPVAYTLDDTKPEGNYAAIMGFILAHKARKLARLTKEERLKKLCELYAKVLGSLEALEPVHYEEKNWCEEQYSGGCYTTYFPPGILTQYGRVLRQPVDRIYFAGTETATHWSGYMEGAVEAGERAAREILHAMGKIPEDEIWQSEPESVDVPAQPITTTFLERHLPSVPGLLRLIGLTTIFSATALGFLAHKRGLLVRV
The assay is described as follows: Activity on recombinant human MAO-B, Amplex Red method, 1 mM benzylamine substrate. The settings on record: read-out: Inhibitory Activity (IC50, nM) MAO-B. The procedure, abridged:
as §1

The target of assay [3] is T4, recombinant human DAO (diamine oxidase) (Homo sapiens, UniProt P19801).
T4 construct: purchased R&D systems
T4 sequence (P19801 20-751): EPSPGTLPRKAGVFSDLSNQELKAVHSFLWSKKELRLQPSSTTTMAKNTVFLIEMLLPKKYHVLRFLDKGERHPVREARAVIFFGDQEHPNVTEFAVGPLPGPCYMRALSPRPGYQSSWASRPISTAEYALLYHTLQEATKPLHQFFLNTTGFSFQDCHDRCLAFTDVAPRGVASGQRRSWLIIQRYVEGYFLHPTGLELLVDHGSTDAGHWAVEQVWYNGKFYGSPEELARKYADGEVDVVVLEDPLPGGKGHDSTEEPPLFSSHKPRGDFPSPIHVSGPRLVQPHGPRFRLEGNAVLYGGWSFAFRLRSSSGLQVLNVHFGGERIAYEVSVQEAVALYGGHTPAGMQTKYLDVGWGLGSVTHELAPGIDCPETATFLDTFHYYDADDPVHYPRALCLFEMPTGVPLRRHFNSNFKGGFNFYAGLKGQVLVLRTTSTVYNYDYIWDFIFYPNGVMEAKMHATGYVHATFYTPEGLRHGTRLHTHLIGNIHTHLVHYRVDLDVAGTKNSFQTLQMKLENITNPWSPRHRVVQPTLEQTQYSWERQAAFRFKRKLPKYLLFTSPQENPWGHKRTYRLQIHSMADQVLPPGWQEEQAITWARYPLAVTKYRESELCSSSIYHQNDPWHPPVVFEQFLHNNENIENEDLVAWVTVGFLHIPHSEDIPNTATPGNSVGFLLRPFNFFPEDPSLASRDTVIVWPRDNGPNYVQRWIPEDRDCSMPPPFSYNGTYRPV
The assay is described as follows: Activity on recombinant human DAO, Amplex Red method, 1 mM putrescine substrate. To be noted: recombinant human DAO, read-out: Inhibitory Activity (IC50, nM) DAO. The procedure, abridged:
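Inhibition of recombinant human DAO (diamine oxidase, R&D systems) was assessed with the Amplex Red Hydrogen Peroxide Assay Kit. Hydrogen peroxide produced from 1 mM putrescine was detected through an HRP-coupled reaction that converts Amplex Red into fluorescent resorufin, read at 544 nm excitation and 590 nm emission. IC50 values came from four-parameter logistic fits in GraphPad Prism.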

The mark [4] stands for this setting: 1 mM putrescine, * = between 10 and 100 nM, ** = between 300 and 1000 nM.

Regarding `NC/C(=C/F)Cn1ncn(-c2ccc(Br)nc2)c1=O` [Example 24, 2-[(2Z)-2-(aminomethyl)-3-fluoroprop-2-en-1-yl]-4-(6-bromopyridin-3-yl)-2,4-dihydro-3H-1,2,4-triazol-3-one], the IC50 on recombinant human VAP-1 (30 min preincubation at 37° C.) stood at 4.6 nM; in assay [1] (0.5 mM tyramine), 6600 nM; in assay [2] (1 mM benzylamine), 17 nM; in assay [3] (setting [4]), 26 nM.

Regarding `CS(=O)(=O)c1ccc(-c2cnc(-n3cnn(C/C(=C/F)CN)c3=O)cn2)cc1` [Example 217, 2-[(2E)-2-(aminomethyl)-3-fluoroprop-2-en-1-yl]-4-{5-[4-(methylsulfonyl)phenyl]pyrazin-2-yl}-2,4-dihydro-3H-1,2,4-triazol-3-one], the IC50 is 2.2 nM on recombinant human VAP-1, greater than 100000 nM in assay [1] (0.5 mM tyramine substrate), 110 nM in assay [2] (1 mM benzylamine substrate) and less than 100 nM in assay [3] (1 mM putrescine substrate).

Regarding `CC(=O)c1ccc(-c2ccc(-n3cnn(C/C(=C\F)CN)c3=O)cc2)s1` [Example 42, 4-[4-(5-acetylthiophen-2-yl)phenyl]-2-[(2Z)-2-(aminomethyl)-3-fluoroprop-2-en-1-yl]-2,4-dihydro-3H-1,2,4-triazol-3-one hydrochloride], the IC50 is 0.47 nM at recombinant human VAP-1 (30 min preincubation at 37° C.), 18400 nM in assay [1] (0.5 mM tyramine), less than 0.01 nM in assay [2] (1 mM benzylamine) and 1 nM in assay [3] (setting [4]).

As for `NC/C(=C\F)Cn1ncn(-c2cc(-c3ccc4c(c3)OCCO4)ccn2)c1=O` [Example 171, 2-[(2E)-2-(aminomethyl)-3-fluoroprop-2-en-1-yl]-4-[4-(2,3-dihydro-1,4-benzodioxin-6-yl)pyridin-2-yl]-2,4-dihydro-3H-1,2,4-triazol-3-one], the IC50 was 0.84 nM on recombinant human VAP-1, greater than 100000 nM in assay [1] (0.5 mM tyramine substrate), 1540 nM in assay [2] (1 mM benzylamine substrate) and less than 30 nM in assay [3] (1 mM putrescine substrate).

Turning to `Cc1cc(-c2ccc3sc(N)nc3c2)ncc1-n1cnn(C/C(=C/F)CN)c1=O` [Example 127, 4-[6-(2-amino-1,3-benzothiazol-5-yl)-4-methylpyridin-3-yl]-2-[(2E)-2-(aminomethyl)-3-fluoroprop-2-en-1-yl]-2,4-dihydro-3H-1,2,4-triazol-3-one], the 50% inhibitory concentration (IC50) at recombinant human VAP-1 (30 min preincubation at 37° C.) was 1.6 nM; in assay [1] (0.5 mM tyramine) it was greater than 100000 nM; in assay [2] (1 mM benzylamine), 617 nM; in assay [3] (setting [4]) it was less than 100 nM.

Take `Cc1cc(-c2ccc(N3CCOCC3)nc2)ncc1-n1cnn(C/C(=C/F)CN)c1=O` [Example 124, 2-[(2E)-2-(aminomethyl)-3-fluoroprop-2-en-1-yl]-4-[4-methyl-6′-(morpholin-4-yl)-2,3′-bipyridin-5-yl]-2,4-dihydro-3H-1,2,4-triazol-3-one]: the IC50 on recombinant human VAP-1 (30 min preincubation at 37° C.) is 0.89 nM; in assay [1] (0.5 mM tyramine), greater than 100000 nM; in assay [2] (1 mM benzylamine), greater than 10000 nM; in assay [3] (setting [4]) it was less than 100 nM.

On to `NC/C(=C\F)Cn1ncn(-c2cc(-c3ccc4c(c3)OCO4)ccn2)c1=O` [Example 170, 2-[(2E)-2-(aminomethyl)-3-fluoroprop-2-en-1-yl]-4-[4-(1,3-benzodioxol-5-yl)pyridin-2-yl]-2,4-dihydro-3H-1,2,4-triazol-3-one], for which the IC50 was 0.74 nM at recombinant human VAP-1; greater than 100000 nM in assay [1] (0.5 mM tyramine substrate); 235 nM in assay [2] (1 mM benzylamine substrate); less than 100 nM in assay [3] (1 mM putrescine substrate, bound qualified by footnote * / **).

As for `NC/C(=C\F)Cn1ncn(-c2cccc(-c3ccc(N4CCOCC4)c(F)c3)c2)c1=O` [Example 75, 2-[(2E)-2-(aminomethyl)-3-fluoroprop-2-en-1-yl]-4-[3′-fluoro-4′-(morpholin-4-yl)biphenyl-3-yl]-2,4-dihydro-3H-1,2,4-triazol-3-one hydrochloride], the IC50 at recombinant human VAP-1 (30 min preincubation at 37° C.) is 0.93 nM; in assay [1] (0.5 mM tyramine), greater than 100000 nM; in assay [2] (1 mM benzylamine), greater than 10000 nM; in assay [3] (setting [4]), less than 100 nM.

For the molecule `Cc1cc(-c2ccc3c(c2)OCO3)cnc1-n1cnn(C/C(=C/F)CN)c1=O` [Example 150, 2-[(2E)-2-(aminomethyl)-3-fluoroprop-2-en-1-yl]-4-[5-(2H-1,3-benzodioxol-5-yl)-3-methylpyridin-2-yl]-2,4-dihydro-3H-1,2,4-triazol-3-one hydrochloride], the IC50 on recombinant human VAP-1 (30 min preincubation at 37° C.) turned out to be 0.35 nM; in assay [1] (0.5 mM tyramine) it was 4800 nM; in assay [2] (1 mM benzylamine) it was 170 nM; in assay [3] (setting [4]) it was 480 nM.

Regarding `CC(C)c1nc(-c2ccc(-c3cccc(-n4cnn(C/C(=C/F)CN)c4=O)c3)cc2)no1` [Example 64, 2-[(2E)-2-(aminomethyl)-3-fluoroprop-2-en-1-yl]-4-{4′-[5-(propan-2-yl)-1,2,4-oxadiazol-3-yl]biphenyl-3-yl}-2,4-dihydro-3H-1,2,4-triazol-3-one hydrochloride], the IC50 at recombinant human VAP-1 (30 min preincubation at 37° C.) is 3.2 nM; in assay [1] (0.5 mM tyramine), 6030 nM; in assay [2] (1 mM benzylamine), greater than 10000 nM; in assay [3] (setting [4]), less than 30 nM.

The IC50 is the concentration that inhibits the measured activity by half.
